From PMC13598332, “Selective activation of tetrodotoxin-sensitive sodium channels by AaH-II drives arrhythmogenic late Na^+ current in the heart” (Europace, 2026)
Read-outs that look alike come from different tables or passages of the source.

Columns and labels:
hNav1.5 [1] = molecular target: T1, hNav1.5 (Homo sapiens, UniProt Q14524); assay type: cell-based; conditions: for Na+ entry through hNav1.5 in action potential-mimicking protocol: 10 μM TTX-subtracted current
hNav1.1 = hNav1.1 (Homo sapiens, UniProt P35498); assay type: cell-based
hNav1.2 = hNav1.2 (Homo sapiens, UniProt Q99250); assay type: cell-based
hNav1.3 = hNav1.3 (Homo sapiens, UniProt Q9NY46); assay type: cell-based
hNav1.6 = hNav1.6 (Homo sapiens, UniProt Q9UQD0); assay type: cell-based
hNav1.7 = hNav1.7 (Homo sapiens, UniProt Q15858); assay type: cell-based
hNav1.5 [2] = molecular target: T1, hNav1.5; experiment: Manual patch-clamp on HEK293-Nav1.5; assay type: cell-based; conditions: 10 nM; HP −120 mV, 1000-ms step to −20 mV, RT
Experimental: Whole-cell Nav currents were recorded at RT from HEK293 stably expressing hNav1.5, using an Axopatch 200A amplifier (Axon Instruments, Molecular Devices). Voltage-clamp protocols were applied using the pClamp 10.4 software suite (Axon Instruments), interfaced with the electrophysiological setup through a Digidata 1440A digitizer (Axon Instruments). Patch-clamp pipettes were fabricated from borosilicate glass capillaries (outer diameter: 1.5 mm; inner diameter: 0.86 mm; Sutter Instrument) using a P-97 micropipette puller (Sutter Instrument), yielding a pipette resistance of 0.8–1.5 MΩ when filled with the internal solution. The internal solution contained (in mM) 10 CsCl, 110 CsF, 10 NaCl, 10 EGTA, and 10 HEPES (pH 7.2, osmolarity 280 mOsm). The external solution contained (in mM) 100 NaCl, 4 KCl, 40 NMDG, 2 CaCl2, 1 MgCl2, 5 glucose, and 10 HEPES (pH 7.4, osmolarity 298 mOsm). All chemicals were purchased from Sigma-Aldrich. After 80% series resistance compensation, 1000-ms depolarizing steps to −20 mV were applied from a HP of −120 mV to record sodium current under control conditions, following application of 10 nM AaH-II*. Sweeps were delivered every 5 s. Current signals were filtered at 10 kHz before digitization at 50 kHz and storage. […] Data were compiled and analysed using ClampFit 11.2 (Axon Instruments), Microsoft Excel, and GraphPad Software Prism.

[3] = system: adult rat ventricular myocytes; assay type: cell-based; conditions: HP −120 mV, 1-s pulse to −20 mV
Wistar-Han rats = assay type: in vivo, rat; conditions: for QTc / RR / P wave / PR / QRS / T wave area: mean ± SEM
[4] = representative traces, test 0 mV

Sequence of hNav1.7 (Q15858 whole entry): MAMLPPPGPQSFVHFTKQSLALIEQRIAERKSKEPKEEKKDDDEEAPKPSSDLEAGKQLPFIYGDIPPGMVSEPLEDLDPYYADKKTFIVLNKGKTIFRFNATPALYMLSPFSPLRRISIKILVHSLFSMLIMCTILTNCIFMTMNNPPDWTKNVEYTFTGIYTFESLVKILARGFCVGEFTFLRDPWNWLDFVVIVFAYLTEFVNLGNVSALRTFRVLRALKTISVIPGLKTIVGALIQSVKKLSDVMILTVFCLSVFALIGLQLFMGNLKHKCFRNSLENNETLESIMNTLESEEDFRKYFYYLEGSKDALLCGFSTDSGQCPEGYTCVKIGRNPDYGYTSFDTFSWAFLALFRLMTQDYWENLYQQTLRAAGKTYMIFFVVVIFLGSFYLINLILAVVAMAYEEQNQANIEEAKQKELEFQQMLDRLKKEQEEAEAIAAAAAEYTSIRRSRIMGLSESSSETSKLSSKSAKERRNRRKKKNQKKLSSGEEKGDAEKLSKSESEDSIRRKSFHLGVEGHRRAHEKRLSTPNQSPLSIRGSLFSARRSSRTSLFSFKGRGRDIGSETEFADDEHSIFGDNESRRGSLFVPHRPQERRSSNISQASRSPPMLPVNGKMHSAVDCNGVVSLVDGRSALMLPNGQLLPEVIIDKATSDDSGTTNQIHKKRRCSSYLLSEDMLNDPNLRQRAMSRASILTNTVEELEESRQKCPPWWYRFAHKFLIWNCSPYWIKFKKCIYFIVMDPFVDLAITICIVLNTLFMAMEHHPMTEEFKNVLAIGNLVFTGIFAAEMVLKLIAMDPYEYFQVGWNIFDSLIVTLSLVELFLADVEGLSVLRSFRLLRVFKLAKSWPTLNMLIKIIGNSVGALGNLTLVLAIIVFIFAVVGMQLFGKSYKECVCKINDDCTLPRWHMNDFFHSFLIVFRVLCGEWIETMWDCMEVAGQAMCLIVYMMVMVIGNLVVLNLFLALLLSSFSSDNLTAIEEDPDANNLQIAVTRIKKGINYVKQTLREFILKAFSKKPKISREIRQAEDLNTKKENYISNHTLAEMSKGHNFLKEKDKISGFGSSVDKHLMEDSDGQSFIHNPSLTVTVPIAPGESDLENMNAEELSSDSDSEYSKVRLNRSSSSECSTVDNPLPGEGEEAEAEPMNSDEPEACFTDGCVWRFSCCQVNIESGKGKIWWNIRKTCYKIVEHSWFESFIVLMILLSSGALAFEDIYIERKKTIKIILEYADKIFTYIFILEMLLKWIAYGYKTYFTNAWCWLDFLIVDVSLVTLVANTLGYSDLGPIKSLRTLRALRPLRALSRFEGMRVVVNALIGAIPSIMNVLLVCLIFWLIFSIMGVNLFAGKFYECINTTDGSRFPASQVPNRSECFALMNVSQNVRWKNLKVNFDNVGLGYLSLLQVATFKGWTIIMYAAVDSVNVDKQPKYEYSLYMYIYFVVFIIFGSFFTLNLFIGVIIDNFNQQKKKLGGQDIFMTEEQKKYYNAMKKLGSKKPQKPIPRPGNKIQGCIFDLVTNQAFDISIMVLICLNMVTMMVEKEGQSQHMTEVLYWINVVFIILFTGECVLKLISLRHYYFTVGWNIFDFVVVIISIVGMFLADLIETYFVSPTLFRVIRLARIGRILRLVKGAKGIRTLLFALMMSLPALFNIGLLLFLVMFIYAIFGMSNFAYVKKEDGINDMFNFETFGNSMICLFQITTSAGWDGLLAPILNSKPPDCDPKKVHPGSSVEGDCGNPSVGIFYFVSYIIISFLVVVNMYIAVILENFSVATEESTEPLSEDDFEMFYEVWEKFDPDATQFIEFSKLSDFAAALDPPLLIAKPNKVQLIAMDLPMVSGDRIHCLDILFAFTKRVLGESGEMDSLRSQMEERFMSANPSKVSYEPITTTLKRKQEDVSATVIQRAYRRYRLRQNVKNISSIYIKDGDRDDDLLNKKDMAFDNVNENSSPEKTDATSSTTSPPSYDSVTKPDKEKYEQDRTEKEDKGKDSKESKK
Sequence of hNav1.6 (Q9UQD0 other isoform, or with tags, fused parts or gaps): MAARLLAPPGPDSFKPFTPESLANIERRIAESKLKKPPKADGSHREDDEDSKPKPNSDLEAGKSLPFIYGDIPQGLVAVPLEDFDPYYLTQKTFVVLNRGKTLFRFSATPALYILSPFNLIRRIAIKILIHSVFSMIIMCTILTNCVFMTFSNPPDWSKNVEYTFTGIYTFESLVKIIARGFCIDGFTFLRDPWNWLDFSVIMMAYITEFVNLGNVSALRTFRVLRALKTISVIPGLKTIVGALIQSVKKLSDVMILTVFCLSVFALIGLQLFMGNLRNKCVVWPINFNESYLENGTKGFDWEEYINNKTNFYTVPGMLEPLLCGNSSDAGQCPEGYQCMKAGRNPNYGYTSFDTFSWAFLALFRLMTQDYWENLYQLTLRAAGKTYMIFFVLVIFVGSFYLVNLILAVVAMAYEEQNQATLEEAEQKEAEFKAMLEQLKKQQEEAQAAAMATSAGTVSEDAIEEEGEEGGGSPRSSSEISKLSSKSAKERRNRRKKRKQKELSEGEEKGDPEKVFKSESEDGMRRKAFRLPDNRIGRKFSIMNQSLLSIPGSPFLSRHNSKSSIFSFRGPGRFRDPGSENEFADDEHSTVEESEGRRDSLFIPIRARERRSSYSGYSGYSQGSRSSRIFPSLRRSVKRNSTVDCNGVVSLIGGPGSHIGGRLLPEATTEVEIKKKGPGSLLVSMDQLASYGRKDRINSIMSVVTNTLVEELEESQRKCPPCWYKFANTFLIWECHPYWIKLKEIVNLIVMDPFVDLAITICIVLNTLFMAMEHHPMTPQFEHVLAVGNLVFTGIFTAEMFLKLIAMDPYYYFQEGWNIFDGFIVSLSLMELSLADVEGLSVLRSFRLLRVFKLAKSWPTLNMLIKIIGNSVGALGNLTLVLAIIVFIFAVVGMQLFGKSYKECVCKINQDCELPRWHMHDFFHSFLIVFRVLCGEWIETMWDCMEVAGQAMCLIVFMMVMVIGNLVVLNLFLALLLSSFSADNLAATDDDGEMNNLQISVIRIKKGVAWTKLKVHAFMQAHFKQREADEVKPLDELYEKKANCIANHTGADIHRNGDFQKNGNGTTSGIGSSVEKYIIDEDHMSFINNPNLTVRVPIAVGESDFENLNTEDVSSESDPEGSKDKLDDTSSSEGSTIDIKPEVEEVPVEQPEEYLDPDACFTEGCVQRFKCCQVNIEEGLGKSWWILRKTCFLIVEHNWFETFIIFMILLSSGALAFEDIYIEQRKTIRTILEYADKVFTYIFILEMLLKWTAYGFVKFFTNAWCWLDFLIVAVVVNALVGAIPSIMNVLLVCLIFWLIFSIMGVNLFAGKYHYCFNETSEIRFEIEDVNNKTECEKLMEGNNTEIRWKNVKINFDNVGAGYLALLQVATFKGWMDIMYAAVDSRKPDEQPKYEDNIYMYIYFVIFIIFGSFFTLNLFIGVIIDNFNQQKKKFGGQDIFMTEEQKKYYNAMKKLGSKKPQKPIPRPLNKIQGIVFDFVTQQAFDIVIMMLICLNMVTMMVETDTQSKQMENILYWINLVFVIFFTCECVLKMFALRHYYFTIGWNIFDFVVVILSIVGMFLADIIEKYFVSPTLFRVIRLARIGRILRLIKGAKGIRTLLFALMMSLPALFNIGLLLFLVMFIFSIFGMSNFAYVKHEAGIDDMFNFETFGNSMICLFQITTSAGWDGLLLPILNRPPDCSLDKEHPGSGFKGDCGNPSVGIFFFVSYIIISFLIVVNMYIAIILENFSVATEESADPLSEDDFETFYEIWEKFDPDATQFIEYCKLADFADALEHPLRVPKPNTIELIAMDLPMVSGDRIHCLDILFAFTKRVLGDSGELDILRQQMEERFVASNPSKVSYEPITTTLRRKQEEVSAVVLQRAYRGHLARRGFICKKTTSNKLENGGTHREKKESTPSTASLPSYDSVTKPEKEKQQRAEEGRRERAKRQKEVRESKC

With `CC[C@H](C)[C@H](NC(=O)[C@H](Cc1ccc(O)cc1)NC(=O)CNC(=O)[C@H](CC(=O)O)NC(=O)[C@H](CCCCN)NC(=O)[C@@H](N)C(C)C)C(=O)N[C@H](C(=O)N[C@@H](CC(=O)O)C(=O)N[C@@H](CC(=O)O)C(=O)N[C@H](C(=O)N[C@@H](CC(N)=O)C(=O)N[C@H]1CSSC[C@@H](C(=O)N[C@@H](Cc2c[nH]cn2)C(N)=O)NC(=O)[C@H](CCCCN)NC(=O)CNC(=O)[C@@H]2CCCN2C(=O)CNC(=O)[C@H](CCCCN)NC(=O)[C@H]([C@@H](C)O)NC(=O)[C@H](CCCNC(=N)N)NC(=O)[C@H](C(C)C)NC(=O)[C@H](Cc2c[nH]cn2)NC(=O)[C@H](CC(=O)O)NC(=O)[C@@H]2CCCN2C(=O)[C@H](CC(C)C)NC(=O)[C@H](CCCCN)NC(=O)[C@H](Cc2ccc(O)cc2)NC(=O)[C@@H]2CSSC[C@@H]3NC(=O)[C@H](CCC(=O)O)NC(=O)[C@H](CCC(=O)O)NC(=O)[C@H](CC(N)=O)NC(=O)[C@@H]4CSSC[C@H](NC(=O)[C@H](C)NC(=O)[C@H](CC(N)=O)NC(=O)CNC(=O)[C@H](Cc5ccc(O)cc5)NC(=O)[C@@H]5CCCN5C(=O)[C@H](CO)NC(=O)[C@H](C)NC(=O)[C@H](Cc5c[nH]c6ccccc56)NC(=O)[C@H](CCC(N)=O)NC(=O)[C@H](CSSC[C@H](NC(=O)[C@H](Cc5ccccc5)NC(=O)[C@H](Cc5ccc(O)cc5)NC(=O)[C@H]([C@@H](C)O)NC1=O)C(=O)NCC(=O)N[C@@H](CCCNC(=N)N)C(=O)N[C@@H](CC(N)=O)C(=O)N[C@@H](C)C(=O)N[C@@H](Cc1ccc(O)cc1)C(=O)N4)NC(=O)[C@H](Cc1ccc(O)cc1)NC(=O)CNC(=O)[C@H](CO)NC(=O)[C@H](CCC(=O)O)NC(=O)CNC(=O)[C@H](CCCCN)NC(=O)[C@H](CC(C)C)NC(=O)[C@H](CCCCN)NC(=O)[C@H]([C@@H](C)O)NC3=O)C(=O)N[C@@H](Cc1ccc(O)cc1)C(=O)N2)C(C)C)C(C)C` [AaH-II*] the “Na+ entry through hNav1.5 in action potential-mimicking protocol” value (hNav1.5 [1]; 0.1 nM) was “indistinguishable from the control condition”, the “Na+ entry through hNav1.5 in action potential-mimicking protocol” value (hNav1.5 [1]; 10 nM) was “capable of generating a measurable Na^+ current” and the “INaL after 1 s depolarization” value (hNav1.5 [1]; hNav1.5, 10 nM) was “absence of AaH-II*-mediated INaL after 1 s depolarization”. The “shift in voltage-dependence of activation” value (“shift in voltage-dependence” below) (hNav1.5 [1]; hNav1.5, 10 nM) was “lack of shift in the voltage-dependence of activation and inactivation”, the “maximal INaL stimulation (maximal AUC)” value (hNav1.5 [1]; hNav1.5, highest effective AaH-II* concentration) was roughly 19 fold and the “concentration at which INaL is triggered / becomes noticeable” value (hNav1.5 [1]; hNav1.5, representative traces, test 0 mV) was 0.3 nM. The “INaL after 1 s depolarization” value (hNav1.1; 10 nM) was “maintained INaL after 1 s pulse”, the “shift in voltage-dependence” value (hNav1.1; 10 nM) was “large AaH-II*-triggered hyperpolarizing shift in voltage-dependence of activation” and the “maximal INaL stimulation (maximal AUC)” value (hNav1.1; highest effective AaH-II* concentration) was roughly 19 fold. For the same molecule, the “concentration at which INaL is triggered / becomes noticeable” value (hNav1.1; [4]) was 0.1 nM, the “hNav1.2 peak current inhibition” value (hNav1.2; above 1 nM) was “not observed” and the “INaL after 1 s depolarization” value (hNav1.2; hNav1.2, 10 nM) was “significant INaL current at 1 s depolarization”. The “shift in voltage-dependence” value (hNav1.2; hNav1.2, 10 nM) was “lacked a significant shift in voltage-dependence of activation”, the “concentration at which INaL is triggered / becomes noticeable” value (hNav1.2; hNav1.2, representative traces, test 0 mV) was 0.1 nM and the “INaL after 1 s depolarization” value (hNav1.3; 10 nM) was “maintained INaL after 1 s pulse”. For the same molecule, the “shift in voltage-dependence” value (hNav1.3; 10 nM) was “large AaH-II*-triggered hyperpolarizing shift in voltage-dependence of activation”, the “concentration at which INaL is triggered / becomes noticeable” value (hNav1.3; [4]) was 0.1 nM and the “activation of hNav1.6 current incl. INaL after TTX block” value (hNav1.6; 10 nM AaH-II* applied after 100 nM TTX) was “failed to activate any form of current”. The “INaL after 1 s depolarization” value (hNav1.6; hNav1.6, 10 nM) was “maintained INaL after 1 s pulse”, the “shift in voltage-dependence” value (hNav1.6; hNav1.6, 10 nM) was “large AaH-II*-triggered hyperpolarizing shift in voltage-dependence of activation” and the “concentration at which INaL is triggered / becomes noticeable” value (hNav1.6; hNav1.6, representative traces, test 0 mV) was 0.1 nM. The “INaL after 1 s depolarization” value (hNav1.7; 10 nM) was “lacked sufficient INaL at 1 s depolarization”, the “shift in voltage-dependence” value (hNav1.7; 10 nM) was “AaH-II*-mediated shift in voltage-dependence of activation” and the “concentration at which INaL is triggered / becomes noticeable” value (hNav1.7; [4]) was 1 nM. The “effect on peak current amplitude or INaL measured at 1 sec depolarization” value (hNav1.5 [2]) was “absence of effect”, the “AUC and INaL at 1 s depolarization” value ([3]; 0.1 nM, n = 6 cardiomyocytes) was “half of the cells responded with an increased AUC and INaL” and the peak current amplitude ([3]; 0.1 nM, n = 6 cardiomyocytes) was “None of the cells witnessed an increase in peak current amplitude”. For the same molecule, the “AUC and INaL at 1 s depolarization” value ([3]; 10 nM) was “significant increase in AUC and INaL in all cells recorded”, the “arrhythmic rats (rats / all rats)” value (Wistar-Han rats; AaH-II* 3 μg/kg i.v.) was “none of the rats were arrhythmic” and the QTc (Wistar-Han rats; AaH-II* 3 µg/kg i.v., QTc = QT/(RR/100)^1/2, n = 5) was 54.9 ± 5.2. For the same molecule, the RR (Wistar-Han rats; AaH-II* 3 µg/kg i.v., anaesthetized rats, lead I, n = 5) was 153.7 ± 5.6 ms, the P wave (Wistar-Han rats; AaH-II* 3 µg/kg i.v., n = 5) was 17.5 ± 0.3 ms and the PR (Wistar-Han rats; AaH-II* 3 µg/kg i.v., n = 5) was 47.5 ± 1.4 ms. The QRS (Wistar-Han rats; AaH-II* 3 µg/kg i.v., n = 5) was 16.9 ± 1.0 ms, the T wave area (Wistar-Han rats; AaH-II* 3 µg/kg i.v., n = 5) was 1.8 ± 0.5 mV/ms and the “rats with A-V blocks/ PVCs (rats / all rats)” value (Wistar-Han rats; AaH-II* 15 μg/kg i.v.) was “in all rats”. For the same molecule, the P wave (Wistar-Han rats; AaH-II* 15 µg/kg i.v., n = 6) was 18.0 ± 0.8 ms, the PR (Wistar-Han rats; AaH-II* 15 µg/kg i.v., n = 6) was 53.2 ± 5.4 ms and the QRS (Wistar-Han rats; AaH-II* 15 µg/kg i.v., n = 6) was 18.0 ± 0.6 ms. For the same molecule, the RR (Wistar-Han rats; AaH-II* 15 µg/kg i.v., n = 6) was 181.6 ± 2.7 ms, the T wave area (Wistar-Han rats; AaH-II* 15 µg/kg i.v., n = 6) was 3.2 ± 0.5 mV/ms and the P wave (Wistar-Han rats; AaH-II* 30 µg/kg i.v., n = 6) was 18.9 ± 0.8 ms. It also gave a PR (Wistar-Han rats; AaH-II* 30 µg/kg i.v., n = 6) of 53.8 ± 2.2 ms, a QRS (Wistar-Han rats; AaH-II* 30 µg/kg i.v., n = 6) of 17.8 ± 0.3 ms and a QTc (Wistar-Han rats; AaH-II* 30 µg/kg i.v., n = 6) of 69.5 ± 3.3. It also gave an RR (Wistar-Han rats; AaH-II* 30 µg/kg i.v., n = 6) of 176.8 ± 12.3 ms and a T wave area (Wistar-Han rats; AaH-II* 30 µg/kg i.v., n = 6) of 8.1 ± 1.9 mV/ms.
